Experiment: recombinant barcode read abundance after kanamycin selection (control-corrected) (log10(CPM+1)); higher = more efficient recombination; sequences stand for … in AGTGCAGAGAAAATCGGCCAGTTTTCTCTGCCTGCAGTCCGCATGCCGT…AGATTTATGCAGCGGACTGCCTTTCTCCCAAAGTGATAAACCGGACAGTATCATGGACCGGTTTTCCCGGTAATCCGTATTTGCAAGGTTGGTTTCACT; site = the 11-nt target
Procedure, shortened: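 IS621 bridge RNA target-binding loops were paired with targets in a pooled library tested in E. coli. After co-electroporation with a donor plasmid, cells were plated in two replicates on chloramphenicol/ampicillin LB agar (control) and on chloramphenicol/ampicillin/kanamycin carrying 0.1 mM IPTG. Barcodes at recombinant junctions were counted as counts per million, averaged and control-corrected to give recombination efficiency. Values are log10(CPM+1).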
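Note: IS621 recombinase and bridge RNA in Escherichia coli cells.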

Sequence	recombinant barcode read abundance (log10)
TGGCCCTCTTGGGTTCTAACCTGTTGCTG (site TGGCCCTCTTA)	0.111
TGGCCTTCTTGGGTTCTAACCTGTTGCCT (site TAGCCTTCTAG)	0.0963
TGGCCTTCTTGGGTTCTAACCTGTTGCCT (site TCGCCTTCTAG)	0.0688
TGGCCTTCTTGGGTTCTAACCTGTTGCCT (site TGGCCTTCTAG)	0.781
TGGCCTTCTTGGGTTCTAACCTGTTGCCT (site TTGCCTTCTAG)	0.0528
TGGCGAGCTTGGGTTCTAACCTGTTGCCT (site TGGCCTGCTAG)	0.152
TGGCGAGCTTGGGTTCTAACCTGTTGCCT (site TGGCGAGCTAG)	1.02
TGGCGCTCTTGGGTTCTAACCTGTTGCCT (site TGACGCTCTAG)	0.855
TGGCGCTCTTGGGTTCTAACCTGTTGCCT (site TGCCGCTCTAG)	0
TGGCGCTCTTGGGTTCTAACCTGTTGCCT (site TGGCGCTCTAG)	0.457
TGGCGCTCTTGGGTTCTAACCTGTTGCCT (site TGTCGCTCTAG)	0.0369
TGGCTATCTTGGGTTCTAACCTGTTGCCT (site CGGCTATCTAG)	0.00906
TGGCTATCTTGGGTTCTAACCTGTTGCCT (site TGGCTATCTAG)	0.187
TGGCTCCCTTGGGTTCTAACCTGTTGCCG (site TGGCTCCCTCC)	0.077
TGGCTCCCTTGGGTTCTAACCTGTTGCCG (site TGGCTCCCTCG)	1.35
TGGCTCCCTTGGGTTCTAACCTGTTGCGG (site TGGCTCCCTCC)	0.188
TGGCTCCCTTGGGTTCTAACCTGTTGCGG (site TGGCTCCCTCG)	0.12
TGGGACTCTTGGGTTCTAACCTGTTGCCA (site TCGGACACTTG)	0.328
TGGGACTCTTGGGTTCTAACCTGTTGCCA (site TGGGACTCTTG)	2.29
TGGGATCCTTGGGTTCTAACCTGTTGCAT (site AGGGGTCCTAT)	0.0813
TGGGATCCTTGGGTTCTAACCTGTTGCAT (site TGGGATCCTAT)	1.73
TGGGGCCCTTGGGTTCTAACCTGTTGCCT (site TGGGGCCCTAG)	1.66

Sequence	recombinant barcode read abundance (log10)
TGGGGCCCTTGGGTTCTAACCTGTTGCCT (site TGGTGCCCTAC)	0.156
TGGGGTCCTTGGGTTCTAACCTGTTGCCT (site TGGAGTCCTAG)	1.52
TGGGGTCCTTGGGTTCTAACCTGTTGCCT (site TGGCGTCCTAG)	0.0786
TGGGGTCCTTGGGTTCTAACCTGTTGCCT (site TGGGGTCCTAG)	2.33
TGGGGTCCTTGGGTTCTAACCTGTTGCCT (site TGGTGTCCTAG)	0.217
TGGGTCCCTTGGGTTCTAACCTGTTGCCT (site TGAGTCCCTAG)	2.14
TGGGTCCCTTGGGTTCTAACCTGTTGCCT (site TGCGTCCCTAG)	0.102
TGGGTCCCTTGGGTTCTAACCTGTTGCCT (site TGGGTCCCTAG)	3
TGGGTCCCTTGGGTTCTAACCTGTTGCCT (site TGTGTCCCTAG)	0.0764
TGGTACCCTTGGGTTCTAACCTGTTGCCT (site TGGTACCCTAG)	1.64
TGGTACCCTTGGGTTCTAACCTGTTGCCT (site TGTTACCCTAG)	0.126
TGGTATTCTTGGGTTCTAACCTGTTGCCT (site TGGTATACTAG)	0.0539
TGGTATTCTTGGGTTCTAACCTGTTGCCT (site TGGTATCCTAG)	0.113
TGGTATTCTTGGGTTCTAACCTGTTGCCT (site TGGTATGCTAG)	0.11
TGGTATTCTTGGGTTCTAACCTGTTGCCT (site TGGTATTCTAG)	0.373
TGGTCCGCTTGGGTTCTAACCTGTTGCCT (site TGGTACGCTAG)	0.257
TGGTCCGCTTGGGTTCTAACCTGTTGCCT (site TGGTCCGCTAG)	1.58
TGGTCCGCTTGGGTTCTAACCTGTTGCCT (site TGGTGCGCTAG)	0.0483
TGGTCCGCTTGGGTTCTAACCTGTTGCCT (site TGGTTCGCTAG)	0.243
TGGTGCCCTTGGGTTCTAACCTGTTGCGT (site TGGGGCCCTAG)	0.122
TGGTGCCCTTGGGTTCTAACCTGTTGCGT (site TGGTGCCCTAC)	1.83
TGGTTACCTTGGGTTCTAACCTGTTGCCT (site TGGTTACCTAG)	1.17

Sequence	recombinant barcode read abundance (log10)
TGGTTACCTTGGGTTCTAACCTGTTGCCT (site TGTTTAACTAG)	0.0377
TGTACGTCTTGGGTTCTAACCTGTTGCTT (site TGTACGACTAG)	0.0847
TGTACGTCTTGGGTTCTAACCTGTTGCTT (site TGTACGTCTAA)	0.326
TGTAGAGCTTGGGTTCTAACCTGTTGCAG (site TGTAGAGCTCT)	0.872
TGTAGAGCTTGGGTTCTAACCTGTTGCAG (site TGTTGAGCTCT)	0.0298
TGTAGCACTTGGGTTCTAACCTGTTGCAC (site TGTAGCACTGT)	0.0233
TGTAGCACTTGGGTTCTAACCTGTTGCAC (site TGTCGCACTCT)	0.159
TGTAGTCCTTGGGTTCTAACCTGTTGCAT (site TGTAGTCCTAA)	0.232
TGTAGTCCTTGGGTTCTAACCTGTTGCAT (site TGTAGTCCTAC)	0.0299
TGTAGTCCTTGGGTTCTAACCTGTTGCAT (site TGTAGTCCTAG)	0.156
TGTAGTCCTTGGGTTCTAACCTGTTGCAT (site TGTAGTCCTAT)	0.097
TGTAGTCCTTGGGTTCTAACCTGTTGCCT (site TGTAGTCCTAA)	0.0423
TGTAGTCCTTGGGTTCTAACCTGTTGCCT (site TGTAGTCCTAC)	0.0647
TGTAGTCCTTGGGTTCTAACCTGTTGCCT (site TGTAGTCCTAG)	0.26
TGTAGTCCTTGGGTTCTAACCTGTTGCCT (site TGTAGTCCTAT)	0.348
TGTATCGCTTGGGTTCTAACCTGTTGCCT (site TGTATCGCTAG)	0.405
TGTATCGCTTGGGTTCTAACCTGTTGCCT (site TGTCCCGCTAG)	0.149
TGTCAAACTTGGGTTCTAACCTGTTGCCT (site TGTCAAACTAG)	0.298
TGTCAAACTTGGGTTCTAACCTGTTGCCT (site TGTCAACCTAG)	0.176
TGTCAAACTTGGGTTCTAACCTGTTGCCT (site TGTCAAGCTAG)	0.145
TGTCAAACTTGGGTTCTAACCTGTTGCCT (site TGTCAATCTAG)	0.0654
TGTCAATCTTGGGTTCTAACCTGTTGCCT (site TGTCAAACTAG)	0.243

Sequence	recombinant barcode read abundance (log10)
TGTCAATCTTGGGTTCTAACCTGTTGCCT (site TGTCAACCTAG)	0.061
TGTCAATCTTGGGTTCTAACCTGTTGCCT (site TGTCAAGCTAG)	0.0211
TGTCAATCTTGGGTTCTAACCTGTTGCCT (site TGTCAATCTAG)	0.0947
TGTCAATCTTGGGTTCTAACCTGTTGCGT (site TGTCAATCTAC)	0.543
TGTCAATCTTGGGTTCTAACCTGTTGCGT (site TGTCGATCTAG)	0.152
TGTCAGGCTTGGGTTCTAACCTGTTGCCT (site TGCTAGGCTAG)	0.187
TGTCAGGCTTGGGTTCTAACCTGTTGCCT (site TGTCAGGCTAG)	0.0749
TGTCGCACTTGGGTTCTAACCTGTTGCAG (site TGTAGCACTGT)	0.123
TGTCGCACTTGGGTTCTAACCTGTTGCAG (site TGTCGCACTCT)	0.313
TGTCTACCTTGGGTTCTAACCTGTTGCCT (site TGTCTACCTAG)	0.191
TGTCTACCTTGGGTTCTAACCTGTTGCCT (site TGTCTATCTAG)	0.653
TGTCTAGCTTGGGTTCTAACCTGTTGCCT (site TGACTAGCTAG)	0.486
TGTCTAGCTTGGGTTCTAACCTGTTGCCT (site TGCCTAGCTAG)	0.0303
TGTCTAGCTTGGGTTCTAACCTGTTGCCT (site TGGCTAGCTAG)	0.0711
TGTCTAGCTTGGGTTCTAACCTGTTGCCT (site TGTCTAGCTAG)	0.038
TGTCTCCCTTGGGTTCTAACCTGTTGCCG (site TGTCTCCCTCG)	0.261
TGTCTCCCTTGGGTTCTAACCTGTTGCCG (site TGTGTCCCTCG)	0.108
TGTCTGCCTTGGGTTCTAACCTGTTGCCT (site AGTCTGCCTAG)	0.104
TGTCTGCCTTGGGTTCTAACCTGTTGCCT (site CGTCTGCCTAG)	0.122
TGTCTGCCTTGGGTTCTAACCTGTTGCCT (site GGTCTGCCTAG)	0.0534

From the supplement of paper PMC11208160
